For experiment [1], the system named is CML CD34+ cells. In words: Patient-derived xenograft of CML CD34+ cells in NRG-W41 mice, bone marrow flow cytometry. As to conditions: 4 weeks. The experiment is classed as in vivo, human. On the procedure:
Treatment was given for 4 weeks. For treatment with asciminib (ABL001) plus MSDC-0160, twelve weeks following transplant, drug treatment was started with both asciminib (Fisher Scientific Cat #1642956) dosed at 10 mg/kg/day (5 mg/kg BID); oral gavage and MSDC-0160 (Apex Biotechnology: Cat #B3702) dosed at 30 mg/kg; oral gavage once daily. Treatment was given for 4 weeks. At the respective endpoints, bone marrow cells were collected. This was done by placing inverted cut leg bones into 0.5 mL Eppendorf tubes with holes at bottom. These in turn were placed within 1.5 mL Eppendorf tubes containing PBS, centrifuged (12,000 RCF, 20 seconds). Cells were stained (300 μl/test) with anti-mouse (APC-Cy7 BD Biosciences: Cat #557659, RRID: AB_396774, 1 μl), anti-human CD45 (FITC; BD Biosciences: Cat #555482, RRID: AB_395874, 10 μl), anti-human CD34 (APC; BD Biosciences: Cat #555824, RRID: AB_398614, 2 μl) and anti-human CD38 (PerCP; BioLegend: Cat #303520, RRID: AB_893313, 2 μl) antibodies for flow cytometry analysis as described above.
On the technique in general: A xenograft is tissue or cells of one species grown in another, often human tumour cells in immunodeficient mice.

The subject of a further experiment is K562 CML cell line. Put plainly: 13C6 glucose tracing in K562 CML cell line. The settings on record: K562, several concentrations. The experiment is classed as cell-based, human. On the procedure: (§1) For conjugation of palmitate, a 20 mM stock was made in 100% EtOH. This was incubated on a shaking heater, 60° C. until the solution clarified. The palmitate was then added to 10% BSA (ultra-fatty acid free in EBSS, Roche, 03117057001) to give a palmitate:BSA ratio of 1:3 BSA. This solution was left for 15 min in water bath (37° C.), and then added to final concentration in complete medium. For cell line experiments, the medium was RPMI with 10% dialysed FBS and 1% penicillin/streptomycin. For tracing experiments 11 mM ^13C6 glucose was added to glucose-free RPMI.
(§2) Biological and technical replicates were processed through Autoplotter (56) and natural abundance was corrected for. Fraction of enrichment was calculated as m+2 and above. For CML samples treated with or without imatinib, multiple paired T-tests were conducted on Log 10 transformed values in Graphpad Prism. The correction for multiple comparisons was the two-stage step-up method of Benjamini, Krieger and Yekutieli with an FDR (Q) value of 10%. For volcano plots Log 10 FC vs Log 10 (q value) are plotted with q values>5% in red and >10% in blue. For normal vs CML comparisons, the process was the same with the exception that unpaired t-tests were used. For PC activity in normal vs CML, this is denoted by fraction m+3. For imatinib vs untreated we look at relative activity to PDH. IE., the m+3/m+2 ratio and conducted multiple t-tests with correction for multiple comparisons being the two-stage step-up method of Benjamini, Krieger and Yekutieli with an FDR (Q) value of 10%. To examine contribution to carbon pool we corrected contribution of each isotopologue by the number of carbons it contributes to a given metabolite, i.e., for glutamine contribution from m+5 is greater than m+3. Note that for cell line experiments standard deviation is shown.

Experiment [2] relates to CML CD34+ cells. Put plainly: LC-MS steady state metabolite analysis of primary CML CD34+ cells. The experiment is classed as cell-based, human. The settings on record: nilotinib treatment, data not shown. On the procedure:
(§3) Cells were counted using a CASY counter with the following parameters: E-cur 7.5-22.5, N-cur 5.25-20.5. Cell number was multiplied by peak volume (size) and this number was used to calculate volume of solvent to extract in. Cells were pelleted by centrifugation (400 RCF, 10 minutes, room temperature) at which medium was removed for YSI analysis. Cells were then washed twice with ice cold PBS (Calcium and Magnesium free: Thermo Fisher Scientific) with pulse centrifugation (12,000RCF, 15 seconds, 4° C.) used between and after washes. Cells were then extracted in LC-grade ACN:MeOH:H2O solvent (−20° C., 5:3:2) by disrupting the pellet by pipetting followed by a 5 second vortex. Finally, debris was pelleted by centrifugation (16,000RCF, 10 minutes, 4° C.), supernatant transferred to LC-MS glass vials that were stored at −80° C. until analysis.
The LC system composed of a ZIC-pHILIC column (SeQuant, 150×2.1 mm, 5 μm, Merck KGaA) with a ZIC-pHILIC guard column (SeQuant, 20×2.1 mm) with an UltiMate 3000 HPLC system (Thermo Fisher Scientific). The aqueous mobile-phase solvent was 20 mM ammonium carbonate-0.1% ammonium hydroxide solution and with acetonitrile being used for organic mobile phase. A linear biphasic LC gradient was conducted from 80% organic to 80% aqueous for 15 min for a total run time of 22 min. The column temperature was maintained at 45° C. flow rate set to 200 μL/min.
The MS used in this study was a qExactive Plus Orbitrap Mass Spectrometer (Thermo Fisher Scientific) operating in polarity switching mode. The MS set up was calibrated using a custom CALMIX in both ionization modes before analysis and a tune file targeted towards the lower m/z range was used. Full scan (MS1) data was acquired in both ionization modes in profile mode at 70,000 resolution (at m/z range 75-1000), an automatic gain control (AGC) target of 1×10^6 (max fill time of 250 ms), with spray voltages +4.5 kV (capillary +50V, tube: […], skimmer: +20V) and −3.5 kV (capillary −50V, tube: […], skimmer: −20V) and s-lens RF level of 50 for the front optics. The capillary temperature 375° C., probe temperature 50′C, sheath gas flow rate 25, auxiliary gas flow rate 15a.u. 15 and sweep gas flow rate of 1a.u.
(§4) The peak areas of different metabolites were determined using Tracefinder 4.1 software (Thermo Fisher Scientific). Metabolites were identified by accurate mass of the singly charged ion and by known retention times on the pHILIC column. A commercially available standard compound mix (Merck: MSMLS-1EA) had been analysed previously on our LC-MS system to determine accurate ion masses and retention times. The 13C labelling was determined by quantifying peak areas for the accurate mass of all isotopologues of each metabolite.
Two independent experiments were performed, data normalised to first sample in each experiment, processed through Autoplotter (56), samples as experiments, and normalised data as replicates. […] For MSDC-0160 treated samples a batch correction (to non-drug control) was used prior to analysis using Metabonalyst. Volcano plots were generated, and an FDR adjusted t-test threshold 0.1 was utilised. Note both fold changes and p-values are log transformed. Top-25 scoring metabolites are included in heatmap.

In experiment [3] the test system is CML CD34+ cells. In words: 13C stable isotope tracing (glucose, glutamine, palmitate) in primary CML CD34+ cells. The experiment is classed as cell-based, human. The settings on record: nilotinib treatment, data not shown. On the procedure: as §1, §3, §4
as §2, with “10%.” for “10%. To examine contribution to carbon pool we corrected contribution of each isotopologue by the number of carbons it contributes to a given metabolite, i.e., for glutamine contribution from m+5 is greater than m+3. Note that for cell line experiments standard deviation is shown.”

The test system of the next experiment is phospho-AMPK. As to conditions: previously shown (ref 42); cited from earlier work.
For a further experiment, the system named is K562 cells. Put plainly: Viability (Annexin V/7AAD) and CFC assays of vector control versus PC knockout K562 cells. The experiment is classed as cell-based, human. The settings on record: 72 hours; 600 nm imatinib or 100 nm omacetaxine. On the procedure:
(a) Western blot of PC and loading control (tubulin) from vector control or PC knockout K562 cells. (b) Proliferation of K562 cells from A. Shown is average and SEM from 3 independent experiments. (c) Fractional labelling from ^13C6 glucose into indicated metabolites of PC knockout cells are shown (n=3) after 24 hours. Plots were generated using Autoplotter, average and SD are plotted. Statistical analyses were conducted on the m+5 fraction. An ordinary one-way ANOVA was used with Dunnett's test used to correct for multiple comparisons. (d) Cells viability was measured using Annexin V and 7AAD. Cells were either left untreated (UT) or exposed for 72 hours to 600 nm imatinib or 100 nm omacetaxine (OMA). Shown is average and SEM from 4 independent experiments. An ordinary one-way ANOVA was used with Dunnett's test used to correct for multiple comparisons. (e) Colony Forming Cell (CFC) potential of control and […] cells. Cells were either left untreated (UT) or exposed for 72 hours to 600 nm imatinib. Shown is average and SEM from 4 independent experiments. An ordinary one-way ANOVA was used with Dunnett's test used to correct for multiple comparisons. […]

In the case of `O=C(Nc1ccc(OC(F)(F)Cl)cc1)c1cnc(N2CC[C@@H](O)C2)c(-c2ccn[nH]2)c1` [ABL-001], in the experiment on CML CD34+ cells [1] (ABL-001 10 mg/kg/day (5 mg/kg BID), 12 weeks engraftment), the “engraftment of human CML cells in bone marrow” value is listed as “variable increase in engraftment”. For the same molecule, the “CD34+ cells in bone marrow” value in the experiment on CML CD34+ cells [1] (ABL-001 10 mg/kg/day) is “not affected”.
For `N#C/C(=C\c1cn(-c2ccccc2)c2ccccc12)C(=O)O` [UK-5099], the “labelled fractions in alpha-ketoglutarate (AKG) and AKG-derived glutamate” value in the experiment with K562 CML cell line is reported as “reducing levels of all labelled fractions in these metabolites in a concentration-dependent manner”. The “glucose contribution to fraction of labelling” value in the experiment on K562 CML cell line (data not shown) is reported as “concentration-dependent reduction”.
As for `Cc1cn(-c2cc(NC(=O)c3ccc(C)c(Nc4nccc(-c5cccnc5)n4)c3)cc(C(F)(F)F)c2)cn1` [nilotinib], the total metabolite levels result with CML CD34+ cells [2] is reported as “reduction”. In the experiment with CML CD34+ cells [3], the “13C-glucose incorporation into TCA cycle metabolites” value is given as “reduction”. Also, in the experiment with phospho-AMPK, the “phospho-AMPK in CD34+ CML cells” value is “increase”.
Take `COC(=O)C[C@](O)(CCCC(C)(C)O)C(=O)O[C@@H]1C(OC)=C[C@]23CCCN2CCc2cc4c(cc2[C@H]13)OCO4` [omacetaxine mepesuccinate]: the “sensitisation of K562 to the drug by PC ablation, viability and CFC assays” value with K562 cells was “not observed”.

(Values after US20260014129A1, “MITOCHONDRIAL PYRUVATE METABOLISM INHIBITORS FOR TREATING CHRONIC MYELOID LEUKEMIA” (The University Court of the University of Glasgow, priority 2022, published 2026).)
